Here are results for 18 compounds from patent US20220153746A1, “NITROGEN OXIDE-DONATING PDE-5 AND/OR PDE-6 INHIBITOR COMPOUNDS, AND USES THEREOF” (ILDONG PHARMACEUTICAL CO., LTD., priority 2020, published 2022).

For one assay, the target named is human PDE-5A1 (Homo sapiens, UniProt O76074). Description: Human PDE-5A1 inhibition assay (fluorescence polarization, FAM-cGMP). Format: biochemical. To be noted: read-out: IC50 (μM) PDE5A1.
A further assay deals with human PDE-6C (Homo sapiens, UniProt P51160). Description: Human PDE-6C inhibition assay (fluorescence polarization, FAM-cGMP). Format: biochemical. To be noted: read-out: IC50 (μM) PDE6C.
Chain of human PDE-6C (P51160 whole entry): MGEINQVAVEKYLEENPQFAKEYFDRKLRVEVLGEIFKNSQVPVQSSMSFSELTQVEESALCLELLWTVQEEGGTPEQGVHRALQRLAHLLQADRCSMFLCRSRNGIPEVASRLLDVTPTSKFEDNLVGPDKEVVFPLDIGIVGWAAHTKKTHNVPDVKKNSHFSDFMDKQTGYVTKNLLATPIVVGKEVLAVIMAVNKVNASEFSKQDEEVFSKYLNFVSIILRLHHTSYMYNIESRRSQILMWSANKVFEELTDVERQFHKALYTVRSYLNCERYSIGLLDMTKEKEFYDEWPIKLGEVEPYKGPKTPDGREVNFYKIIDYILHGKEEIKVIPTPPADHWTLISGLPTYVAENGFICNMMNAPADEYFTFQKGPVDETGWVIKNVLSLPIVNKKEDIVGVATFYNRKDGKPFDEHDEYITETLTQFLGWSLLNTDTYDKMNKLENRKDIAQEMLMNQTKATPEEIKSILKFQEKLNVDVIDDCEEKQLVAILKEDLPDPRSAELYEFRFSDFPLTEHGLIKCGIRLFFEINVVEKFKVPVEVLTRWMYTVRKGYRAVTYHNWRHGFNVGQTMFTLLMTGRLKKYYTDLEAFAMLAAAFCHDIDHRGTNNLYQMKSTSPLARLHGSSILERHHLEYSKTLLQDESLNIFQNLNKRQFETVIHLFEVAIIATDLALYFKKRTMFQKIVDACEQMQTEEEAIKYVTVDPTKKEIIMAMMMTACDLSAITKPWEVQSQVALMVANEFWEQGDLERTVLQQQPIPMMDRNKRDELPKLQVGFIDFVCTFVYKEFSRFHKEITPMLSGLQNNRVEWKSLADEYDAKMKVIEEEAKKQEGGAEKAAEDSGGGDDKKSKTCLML

As to `CCCc1nn(C)c2c(=O)[nH]c(-c3cc(S(=O)(=O)N4CC(NCCO)C4)ccc3OCC)nc12` [Compound 9, 5-(2-ethoxy-5-((3-((2-hydroxyethyl)amino)azetidin-1-yl)sulfonyl)phenyl)-1-methyl-3-propyl-1,6-dihydro-7H-pyrazolo[4,3-d]pyrimidin-7-one], the half-inhibitory concentration (IC50) on human PDE-5A1 and on human PDE-6C was 0.01 to 0.1 µM each time.
Consider `CCCc1nn(C)c2c(=O)[nH]c(-c3cc(S(=O)(=O)N4CC(NCCCCO)C4)ccc3OCC)nc12` [Compound 11, 5-(2-ethoxy-5-((3-((4-hydroxybutyl)amino)azetidin-1-yl)sulfonyl)phenyl)-1-methyl-3-propyl-1,6-dihydro-7H-pyrazolo[4,3-d]pyrimidin-7-one], for which the 50% inhibitory concentration (IC50) at human PDE-5A1 and at human PDE-6C was 0.01 to 0.1 µM throughout.
Regarding `CCCc1nn(C)c2c(=O)[nH]c(-c3cc(S(=O)(=O)N4CC(N(C)CCO)C4)ccc3OCC)nc12` [Compound 12, 5-(2-ethoxy-5-((3-((2-hydroxyethyl)(methyl)amino)azetidin-1-yl)sulfonyl)phenyl)-1-methyl-3-propyl-1,6-dihydro-7H-pyrazolo[4,3-d]pyrimidin-7-one], the IC50 at human PDE-5A1 and at human PDE-6C was less than 0.01 µM each time.
On to `CCCc1nn(C)c2c(=O)[nH]c(-c3cc(S(=O)(=O)N4CC(N(C)CCCO)C4)ccc3OCC)nc12` [Compound 13, 5-(2-ethoxy-5-((3-((3-hydroxypropyl)(methyl)amino)azetidin-1-yl)sulfonyl)phenyl)-1-methyl-3-propyl-1,6-dihydro-7H-pyrazolo[4,3-d]pyrimidin-7-one], for which the IC50 was less than 0.01 µM at human PDE-5A1 and 0.01 to 0.1 µM at human PDE-6C.
Consider `CCCc1nn(C)c2c(=O)[nH]c(-c3cc(S(=O)(=O)N4CC(N(C)CCCCO)C4)ccc3OCC)nc12` [Compound 14, 5-(2-ethoxy-5-((3-((4-hydroxybutyl)(methyl)amino)azetidin-1-yl)sulfonyl)phenyl)-1-methyl-3-propyl-1,6-dihydro-7H-pyrazolo[4,3-d] pyrimidin-7-one], for which the IC50 on human PDE-5A1 and on human PDE-6C was less than 0.01 µM throughout.
As for `CCCc1nn(C)c2c(=O)[nH]c(-c3cc(S(=O)(=O)N4CC(O[N+](=O)[O-])C4)ccc3OCC)nc12` [Compound 15, 1-((4-ethoxy-3-(1-methyl-7-oxo-3-propyl-6,7-dihydro-1H-pyrazolo[4,3-d]pyrimidin-5-yl)phenyl)sulfonyl) azetidin-3-yl nitrate], the IC50 at human PDE-5A1 and at human PDE-6C was 0.01 to 0.1 µM in each case.
In the case of `CCCc1nn(C)c2c(=O)[nH]c(-c3cc(S(=O)(=O)N4CC(CO[N+](=O)[O-])C4)ccc3OCC)nc12` [Compound 16, (1-((4-ethoxy-3-(1-methyl-7-oxo-3-propyl-6,7-dihydro-1H-pyrazolo[4,3-d]pyrimidin-5-yl)phenyl)sulfonyl)azetidin-3-yl)methyl nitrate], the IC50 on human PDE-5A1 is less than 0.01 µM; on human PDE-6C, 0.01 to 0.1 µM.
Taken in the same sequence, the figures for `CCCc1nn(C)c2c(=O)[nH]c(-c3cc(S(=O)(=O)NC4CN(CCO[N+](=O)[O-])C4)ccc3OCC)nc12` [Compound 19, 2-(3-((4-ethoxy-3-(1-methyl-7-oxo-3-propyl-6,7-dihydro-1H-pyrazolo[4,3-d]pyrimidin-5-yl)phenyl)sulfonamido)azetidin-1-yl)ethyl nitrate] were less than 0.01 µM and less than 0.01 µM.
Taken in the same sequence, the figures for `CCCc1nn(C)c2c(=O)[nH]c(-c3cc(S(=O)(=O)NC4CN(CCCO[N+](=O)[O-])C4)ccc3OCC)nc12` [Compound 20, 3-(3-((4-ethoxy-3-(1-methyl-7-oxo-3-propyl-6,7-dihydro-1H-pyrazolo[4,3-d]pyrimidin-5-yl)phenyl)sulfonamido)azetidin-1-yl)propyl nitrate] were 0.01 to 0.1 µM and less than 0.01 µM.
As to `CCCc1nn(C)c2c(=O)[nH]c(-c3cc(S(=O)(=O)N4CC(NCCO[N+](=O)[O-])C4)ccc3OCC)nc12` [Compound 21, 2-((1-((4-ethoxy-3-(1-methyl-7-oxo-3-propyl-6,7-dihydro-1H-pyrazolo[4,3-d]pyrimidin-5-yl)phenyl)sulfonyl)azetidin-3-yl)amino)ethyl nitrate], the IC50 at human PDE-5A1 and at human PDE-6C was less than 0.01 µM in each case.
For `CCCc1nn(C)c2c(=O)[nH]c(-c3cc(S(=O)(=O)N4CC(N(C)CCO[N+](=O)[O-])C4)ccc3OCC)nc12` [Compound 23, 2-((1-((4-ethoxy-3-(1-methyl-7-oxo-3-propyl-6,7-dihydro-1H-pyrazolo[4,3-d]pyrimidin-5-yl)phenyl)sulfonyl)azetidin-3-yl)(methyl)amino)ethyl nitrate], the half-inhibitory concentration (IC50) at human PDE-5A1 and on human PDE-6C was less than 0.01 µM in each case.
On to `CCCc1nn(C)c2c(=O)[nH]c(-c3cc(S(=O)(=O)N4CC(N(C)CCCO[N+](=O)[O-])C4)ccc3OCC)nc12` [Compound 24, 3-((1-((4-ethoxy-3-(1-methyl-7-oxo-3-propyl-6,7-dihydro-1H-pyrazolo[4,3-d]pyrimidin-5-yl)phenyl)sulfonyl)azetidin-3-yl)(methyl)amino)propyl nitrate], for which the IC50 was 0.01 to 0.1 µM on human PDE-5A1 and less than 0.01 µM on human PDE-6C.
Turning to `CCCc1nn(C)c2c(=O)[nH]c(-c3cc(S(=O)(=O)N4CC(OCCO)C4)ccc3OCC)nc12` [Compound 25, 5-(2-ethoxy-5-((3-(2-hydroxyethoxy)azetidin-1-yl)sulfonyl)phenyl)-1-methyl-3-propyl-1,6-dihydro-7H-pyrazolo[4,3-d] pyrimidin-7-one], the IC50 on human PDE-5A1 and at human PDE-6C was 0.01 to 0.1 µM in each case.
Take `CCCc1nn(C)c2c(=O)[nH]c(-c3cc(S(=O)(=O)N4CC(OCCCO)C4)ccc3OCC)nc12` [Compound 26, 5-(2-ethoxy-5-((3-(3-hydroxypropoxy)azetidin-1-yl)sulfonyl)phenyl)-1-methyl-3-propyl-1,6-dihydro-7H-pyrazolo[4,3-d]pyrimidin-7-one]: the IC50 at human PDE-5A1 and on human PDE-6C was 0.01 to 0.1 µM throughout.
For `CCCc1nn(C)c2c(=O)[nH]c(-c3cc(S(=O)(=O)N4CC(OCCCCO)C4)ccc3OCC)nc12` [Compound 27, 5-(2-ethoxy-5-((3-(4-hydroxybutoxy)azetidin-1-yl)sulfonyl)phenyl)-1-methyl-3-propyl-1,6-dihydro-7H-pyrazolo[4,3-d]pyrimidin-7-one], the IC50 on human PDE-5A1 was 0.01 to 0.1 µM; on human PDE-6C, less than 0.01 µM.
In the case of `CCCc1nn(C)c2c(=O)[nH]c(-c3cc(S(=O)(=O)N4CC(CN5CC(CO)C5)C4)ccc3OCC)nc12` [Compound 28, 5-(2-ethoxy-5-((3-((3-(hydroxymethyl)azetidin-1-yl)methyl)azetidin-1-yl)sulfonyl)phenyl)-1-methyl-3-propyl-1,6-dihydro-7H-pyrazolo[4,3-d] pyrimidin-7-one], the IC50 at human PDE-5A1 and on human PDE-6C was 0.01 to 0.1 µM each time.
`CCCc1nn(C)c2c(=O)[nH]c(-c3cc(S(=O)(=O)N4CC(CN5CC(CCO)C5)C4)ccc3OCC)nc12` [Compound 29, 5-(2-ethoxy-5-((3-((3-(2-hydroxyethyl)azetidin-1-yl)methyl)azetidin-1-yl)sulfonyl)phenyl)-1-methyl-3-propyl-1,6-dihydro-7H-pyrazolo[4,3-d]pyrimidin-7-one]: the IC50 on human PDE-5A1 and on human PDE-6C was 0.01 to 0.1 µM each time.
Regarding `CCCc1nn(C)c2c(=O)[nH]c(-c3cc(S(=O)(=O)N4CC(N(CCCO)CCCO)C4)ccc3OCC)nc12` [Compound 30, 5-(5-((3-(bis(3-hydroxypropyl)amino)azetidin-1-yl)sulfonyl)-2-ethoxyphenyl)-1-methyl-3-propyl-1,6-dihydro-7H-pyrazolo[4,3-d]pyrimidin-7-one], the half-inhibitory concentration (IC50) at human PDE-5A1 and on human PDE-6C was less than 0.01 µM throughout.

The term IC50 denotes the concentration at which inhibition is half-maximal.
